Target: T1, Aspergillus niger beta-glucosidase, wild type, yEdQ745-BG (CAB75696.1, SEQ ID NO:2) (Aspergillus niger, UniProt Q9P8F4)
T1 construct: strain yEdQ745
T1 sequence (Q9P8F4 20-860): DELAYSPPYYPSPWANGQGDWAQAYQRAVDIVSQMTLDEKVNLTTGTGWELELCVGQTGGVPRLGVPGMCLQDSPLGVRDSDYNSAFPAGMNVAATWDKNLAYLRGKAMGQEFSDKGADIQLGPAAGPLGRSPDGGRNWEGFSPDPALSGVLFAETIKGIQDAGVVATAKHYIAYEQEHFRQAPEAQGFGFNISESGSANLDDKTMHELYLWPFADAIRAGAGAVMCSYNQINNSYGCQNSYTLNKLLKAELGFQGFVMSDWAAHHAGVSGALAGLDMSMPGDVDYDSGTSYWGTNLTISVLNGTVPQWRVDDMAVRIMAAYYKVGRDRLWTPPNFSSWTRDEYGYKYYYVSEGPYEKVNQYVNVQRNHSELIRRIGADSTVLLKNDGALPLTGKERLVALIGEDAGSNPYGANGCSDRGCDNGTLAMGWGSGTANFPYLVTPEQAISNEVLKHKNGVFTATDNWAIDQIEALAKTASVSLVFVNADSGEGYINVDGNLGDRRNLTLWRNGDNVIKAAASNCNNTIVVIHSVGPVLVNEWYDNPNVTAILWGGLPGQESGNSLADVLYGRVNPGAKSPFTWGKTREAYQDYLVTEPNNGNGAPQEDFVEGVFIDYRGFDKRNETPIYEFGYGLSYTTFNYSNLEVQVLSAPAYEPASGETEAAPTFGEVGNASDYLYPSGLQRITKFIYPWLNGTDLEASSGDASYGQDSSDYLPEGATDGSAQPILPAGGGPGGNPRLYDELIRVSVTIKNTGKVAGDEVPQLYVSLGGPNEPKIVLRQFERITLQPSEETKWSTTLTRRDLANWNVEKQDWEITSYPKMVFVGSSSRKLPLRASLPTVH
Experiment: BG kinetics, cellobiose hydrolysis assay (HPLC) with glucose as competitive inhibitor, yEdQ745-BG
Format: biochemical
Source text: Accordingly, in some embodiments, the unmodified form of the beta-glucosidase is a wild-type or a naturally occurring beta-glucosidase, such as, for example, a fungal beta-glucosidase. The full nucleic acid and amino acid sequence for numerous fungal beta-glucosidases are available. The amino acid sequence of A. niger beta-glucosidase is provided as SEQ ID NO:2. Thus, in some embodiments, the unmodified beta-glucosidase is from an Aspergillus species. In some embodiments, the unmodified beta-glucosidase is from a Trichoderma species.
The beta-glucosidase (BG) gene from Aspergillus niger (Accession #CAB75696.1) was integrated into the TR3 yeast background at the T4U3 genomic site.
The BG-expressing strains were subsequently used in corn mash and corn stover simultaneous saccharification and fermentation (SSF) studies using flask scale and pilot plant fermentations. A 12-gallon corn stover fermentation was performed at 40° C. in which the beta-glucosidase secreting yeast strain was co-inoculated with three other engineered yeast strains individually expressing endoglucanase II, CBH1, and CBHII. Surviving TR3 Saccharomyces cerevisiae yeast strains individually expressing BG, EGII, CBH1 or CBH2 were recovered by plating onto solid medium. A clonal population of BG-secreting yeast was isolated and the BG gene integration confirmed. […]

OC[C@H]1OC(O)[C@H](O)[C@@H](O)[C@@H]1O (some centres unmarked) [glucose]
Ki: 1.56 ± 0.29 mM | Km/Ki (inhibitor influence, Km for cellobiose / Ki for glucose, pH 4.8, 50° C.): 0.93
